Assay type in all cases: in vivo
Experiment [1] relates to rat chronic mild stress (CMS) model of depression. The experiment can be described thus: rat chronic mild stress (CMS) model of depression, sucrose consumption. The following applies: male Wistar rats. The text has this: The rat chronic mild stress (CMS) model of depression has a high degree of predictive validity for antidepressant activity (Willner, 1997, Psychopharmacol. 134, 319-329). Furthermore, the procedure is an appropriate model to study onset of antidepressant action in animals (C. Sánchez et al., 2003, Behavioural Pharmacology 14, 465-470). The principle of the model is based on the relation between stress and affective disorders. Rats exposed to chronic stress will show a reduced sensitivity to rewards (e.g. a palatable sucrose solution).
Male Wistar rats (Gorzkowska, Warsaw) were brought into the laboratory two months before the start of the experiment. The animals were singly housed with food and water freely available, and maintained on a 12-h light/dark cycle at a temperature of 22±2° C., except as described below.
The animals were first trained to consume a 1% sucrose solution; training consisted of eight 1 h baseline tests in which sucrose was presented, in the home cage, following 14 h food and water deprivation; intake was measured by weighing pre-weighed bottles containing the sucrose solution, at the end of the test. Subsequently, sucrose consumption was monitored, under similar conditions, throughout the whole experiment. […] Body weights were assessed a baseline and by the end of drug treatment.

The subject of experiment [2] is 5-HTP-induced behaviour in mice. The experiment can be described thus: mouse 5-HTP potentiation test (potentiation of 5-HTP-induced behaviour). The following applies: gaboxadol 2.5 mg/kg with escitalopram 0.5 to 0.025 mg/kg, s.c., 30 min before i.v. 5-HTP 100 mg/kg, male NMRI/BOM mice. The text has this:
(§1) In order to modulate the activity of systems responsible for antidepressant activity, we have characterized the interaction between gaboxadol and escitalopram (an SSRI) in a behavioral model of serotonin reuptake inhibition, i.e. the mouse 5-HTP potentiation test, and a model that is predictive of antidepressant activity, i.e. the mouse forced swim test (cf. C. Sánchez et al., 2003, Psychopharmacology 167, 353-362).
(§2) Male NMRI/BOM mice (18-25 g; Bomholtgaard, Denmark) were used. The mice were housed in plastic cages (35×30×12 cm), 10 animals in each, and habituated to the animal facilities for at least a week before test. The room temperature (21±2° C.), relative humidity (55±5%), and air exchange (16 times per h) were automatically controlled. The animals had free access to commercial food pellets and tap water before test.
The test procedure for studies in mice is described in detail by Hyttel et al., 1992, J. Neural. Transm. Gen. Sect. 88, 157-60. Briefly, 30 min after subcutaneous (s.c.) administration of test compound, mice were given intravenous (i.v.) 5-HTP (100 mg/kg). Thereafter the animals were evaluated in their home cage during a 15-min observation period with respect to stereotypy (lateral head movements), tremor, and hind limb abduction. One point was given for each symptom being present. A total of 8-16 mice were used per dose. Inhibition of forced swimming-induced immobility.

Experiment [3] relates to forced swimming-induced immobility in mice. The experiment can be described thus: mouse forced swim test (inhibition of forced swimming-induced immobility). The following applies: male NMRI/BOM mice.
Text: as §1, §2
A mouse that is forced to swim in a spatially constrained container will exert a characteristic immobile posture. Pretreatment with an antidepressant will counteract this effect. The test was conducted as described in detail by Sánchez and Meier (Psychopharmacol. 129, 197-205, 1997). Briefly, a fully automated test system with 6 swim units (2000 ml glass jars filled with 1200 ml soiled water (23-25° C.) in which a mouse had been placed previously) was used. […] The accumulated duration of immobility was measured during the last 3 min. […]

Regarding `Oc1noc2c1CCNC2` [gaboxadol, Gaboxadol], the “effect in the rat chronic mild stress model at 2.5 mg/kg per day” value in experiment [1] (2.5 mg/kg per day, intraperitoneal) was “clear and significant effect”. In addition, the “anti-depressant-like effect in the rat chronic mild stress model” value in experiment [1] (twice daily intraperitoneal injections for five weeks) is “significant anti-depressant-like effect”. Besides, the “potentiation of the acute effects of escitalopram in the 5-HTP potentiation test” value in experiment [2] is listed as “strongly potentiated the acute effects of escitalopram”. Also, the “activity by itself in the forced swim test” value in experiment [3] (gaboxadol 2.5 mg/kg alone, 30 min before test) is listed as “not active by itself”. Further, the “potentiation of the antidepressant-like effect of escitalopram in the forced swim test” value in experiment [3] (gaboxadol 2.5 mg/kg with escitalopram 2.5 and 5 mg/kg) was “potentiated the antidepressant-like effect of escitalopram (2.5 and 5 mg/kg) significantly”.

The record behind these values is US20090203731A1, “TREATMENT OF DEPRESSION AND OTHER AFFECTIVE DISORDERS” (H. Lundbeck A/S, priority 2003, published 2009).
